Source: the supplement of paper PMC8612539
In brackets after ≈: the same amount, converted by molar mass.

System: Histophilus somni
Test: minimum inhibitory concentration (MIC)
Experimental: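 Broth microdilution MIC (Sensititre BOPO7F bovine plate, CLSI methods) of 19 antimicrobials against field isolates of P. multocida, M. haemolytica, H. somni (deep nasopharyngeal swabs) and E. coli, Enterococcus spp. (rectal swabs) from weaned dairy heifers. Incubation 16-24 h at 35 C. MIC is the lowest concentration preventing visible growth. Values with <= or > lie at the tested range limits. Trimethoprim-sulfamethoxazole is given as the trimethoprim component of a 1:19 mixture.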

C=C[C@]1(C)C[C@@H](OC(=O)CSCCN(CC)CC)[C@]2(C)[C@H](C)CC[C@]3(CCC(=O)[C@H]32)[C@@H](C)[C@@H]1O [Tiamulin]
Details | minimum inhibitory concentration [µg/mL]
isolate (source animal id): 3 | 1 (≈ 2.03 µM)
isolate (source animal id): 4 | 1 (≈ 2.03 µM)
isolate (source animal id): 7 | 1 (≈ 2.03 µM)
isolate (source animal id): 14 | 2 (≈ 4.05 µM)
isolate (source animal id): 15 | 1 (≈ 2.03 µM)
isolate (source animal id): 17 | 1 (≈ 2.03 µM)
isolate (source animal id): 18 | 1 (≈ 2.03 µM)
isolate (source animal id): 20 | ≤ 0.5
isolate (source animal id): 23 | 1 (≈ 2.03 µM)
isolate (source animal id): 45 | 2 (≈ 4.05 µM)
isolate (source animal id): 53 | 2 (≈ 4.05 µM)
isolate (source animal id): 83 | 1 (≈ 2.03 µM)
isolate (source animal id): 88 | 1 (≈ 2.03 µM)
isolate (source animal id): 92 | 2 (≈ 4.05 µM)
isolate (source animal id): 93 | 1 (≈ 2.03 µM)
isolate (source animal id): 99 | 2 (≈ 4.05 µM)
isolate (source animal id): 100 | 2 (≈ 4.05 µM)
isolate (source animal id): 105 | 1 (≈ 2.03 µM)
isolate (source animal id): 107 | 2 (≈ 4.05 µM)
isolate (source animal id): 108 | 2 (≈ 4.05 µM)
isolate (source animal id): 109 | 2 (≈ 4.05 µM)
isolate (source animal id): 110 | 2 (≈ 4.05 µM)
isolate (source animal id): 117 | 1 (≈ 2.03 µM)
isolate (source animal id): 121 | 1 (≈ 2.03 µM)
isolate (source animal id): 123 | 1 (≈ 2.03 µM)
isolate (source animal id): 124 | 2 (≈ 4.05 µM)
isolate (source animal id): 127 | 1 (≈ 2.03 µM)
isolate (source animal id): 128 | 1 (≈ 2.03 µM)
isolate (source animal id): 130 | 1 (≈ 2.03 µM)
isolate (source animal id): 132 | 2 (≈ 4.05 µM)
isolate (source animal id): 135 | 1 (≈ 2.03 µM)
isolate (source animal id): 140 | 2 (≈ 4.05 µM)
isolate (source animal id): 141 | 2 (≈ 4.05 µM)
isolate (source animal id): 142 | 2 (≈ 4.05 µM)
isolate (source animal id): 144 | 2 (≈ 4.05 µM)
isolate (source animal id): 146 | 1 (≈ 2.03 µM)
isolate (source animal id): 147 | 2 (≈ 4.05 µM)
isolate (source animal id): 151 | 1 (≈ 2.03 µM)
isolate (source animal id): 153 | 2 (≈ 4.05 µM)
isolate (source animal id): 154 | 2 (≈ 4.05 µM)
isolate (source animal id): 156 | 2 (≈ 4.05 µM)
isolate (source animal id): 157 | 2 (≈ 4.05 µM)
isolate (source animal id): 176 | 4 (≈ 8.1 µM)
isolate (source animal id): 183 | 2 (≈ 4.05 µM)
isolate (source animal id): 186 | 2 (≈ 4.05 µM)
isolate (source animal id): 196 | 2 (≈ 4.05 µM)
isolate (source animal id): 198 | 1 (≈ 2.03 µM)
isolate (source animal id): 200 | 2 (≈ 4.05 µM)
isolate (source animal id): 206 | 1 (≈ 2.03 µM)
isolate (source animal id): 208 | 2 (≈ 4.05 µM)
isolate (source animal id): 210 | ≤ 0.5
isolate (source animal id): 212 | ≤ 0.5
isolate (source animal id): 215 | 2 (≈ 4.05 µM)
isolate (source animal id): 216 | 2 (≈ 4.05 µM)
isolate (source animal id): 218 | 2 (≈ 4.05 µM)
isolate (source animal id): 219 | 2 (≈ 4.05 µM)
isolate (source animal id): 224 | 2 (≈ 4.05 µM)
isolate (source animal id): 228 | 2 (≈ 4.05 µM)
isolate (source animal id): 230 | 2 (≈ 4.05 µM)
isolate (source animal id): 233 | 1 (≈ 2.03 µM)
isolate (source animal id): 238 | ≤ 0.5
isolate (source animal id): 239 | 2 (≈ 4.05 µM)
isolate (source animal id): 241 | 2 (≈ 4.05 µM)
isolate (source animal id): 242 | 2 (≈ 4.05 µM)
isolate (source animal id): 243 | 2 (≈ 4.05 µM)
isolate (source animal id): 245 | 2 (≈ 4.05 µM)
isolate (source animal id): 246 | 4 (≈ 8.1 µM)
isolate (source animal id): 247 | 2 (≈ 4.05 µM)
isolate (source animal id): 248 | 1 (≈ 2.03 µM)
isolate (source animal id): 250 | 2 (≈ 4.05 µM)
isolate (source animal id): 251 | 2 (≈ 4.05 µM)
isolate (source animal id): 252 | 4 (≈ 8.1 µM)
isolate (source animal id): 254 | 2 (≈ 4.05 µM)
isolate (source animal id): 258 | 2 (≈ 4.05 µM)
isolate (source animal id): 259 | 1 (≈ 2.03 µM)
isolate (source animal id): 262 | 1 (≈ 2.03 µM)
isolate (source animal id): 264 | ≤ 0.5
isolate (source animal id): 265 | 1 (≈ 2.03 µM)
isolate (source animal id): 266 | 1 (≈ 2.03 µM)
isolate (source animal id): 267 | 1 (≈ 2.03 µM)
isolate (source animal id): 269 | 1 (≈ 2.03 µM)
isolate (source animal id): 271 | 1 (≈ 2.03 µM)
isolate (source animal id): 272 | 1 (≈ 2.03 µM)
isolate (source animal id): 274 | 1 (≈ 2.03 µM)
isolate (source animal id): 276 | 1 (≈ 2.03 µM)
isolate (source animal id): 278 | 1 (≈ 2.03 µM)
isolate (source animal id): 280 | ≤ 0.5
isolate (source animal id): 281 | 2 (≈ 4.05 µM)
isolate (source animal id): 283 | 1 (≈ 2.03 µM)
isolate (source animal id): 288 | 1 (≈ 2.03 µM)
isolate (source animal id): 291 | 1 (≈ 2.03 µM)
isolate (source animal id): 292 | 1 (≈ 2.03 µM)
isolate (source animal id): 296 | ≤ 0.5
isolate (source animal id): 306 | 1 (≈ 2.03 µM)
isolate (source animal id): 336 | 1 (≈ 2.03 µM)
isolate (source animal id): 337 | 1 (≈ 2.03 µM)
isolate (source animal id): 341 | 1 (≈ 2.03 µM)
